Earlier results in patent US20050143343A1, “Nutritional supplement for enhancing the production and effect of natural human growth hormone” (priority 2003, published 2005).

Tested on: human growth hormone secretion
Conditions: oral administration, 15 male volunteers; 1200 mg of each constituent, in combination or alone at the same doses

| Compound | secretion (release) of human growth hormone |
| --- | --- |
| L-arginine-2-pyrrolidone-5-carboxylate | Neither of the two constituents resulted a significant release of human growth hormone |
| Cl.NCCCC[C@H](N)C(=O)O [L-lysine hydrochloride] | Neither of the two constituents resulted a significant release of human growth hormone |
